Read-outs that look alike come from different tables or passages of the source. No end group written: not given here.
Columns and labels:
SK-MEL-28 [1] = assay: MTT cell viability assay; conditions: 48 h
Experimental: (§1) Cell viability was measured by 3-(4,5-dimethylthiazol-2-yl)-2,5-diphenyltetrazolium bromide (MTT) assay, as described elsewhere ([Morais et al., 2016]). […] After 48h, 10% of 5 mg/ml MTT was added to the cells and the plates were incubated for 3 h at 37 °C. Afterward, the medium was discarded, the dark blue formazan crystalline product was dissolved in 100 µL dimethyl sulfoxide (DMSO), and the absorbance was measured in a Spectra MAX 190 microplate reader (Molecular Devices, Sunnyvale, United States) at 540 nm.
(§2) Amblyomin-X (50 μM) were used for comparative purpose. Besides, staurosporine (5 μM), MG-132 (3 μM) and bortezomib (80 nM) were used as a positive control.

MIA PaCa-2 [2] = assay: MTT cell viability assay; type: cell-based, human; conditions: 48 h
Experimental: as §1, §2

SK-MEL-28 [3] = conditions: for Vesicles counts: SK-MEL-28, Alexa-Fluor 488-labeled molecule 20 µM, 37°C, ImageXpress Micro Confocal, mean ± SD of three independent experiments
Experimental: (§3) An additional step was carried out for the purification of peptides using FPLC. SK-MEL-28 and MIA PaCa-2 (10^5 cells/well) were seeded on sterile 35 mm culture dishes. First, a cell-based assay using fluorochrome conjugated molecules was carried by incubation with Amblyomin-X and its synthetic domains (20 µM) in a fresh medium at 37°C for 4 h and nuclei were stained with […] Syto59 (Invitrogen Life Technologies Inc., United States). Then red and green fluorescence were monitored by LSM 510 Meta confocal microscope (Zeiss, Jena, Germany). […] After treatment with synthetic fragments (all at 5 µM) in a fresh medium at 37°C for 4h, tumor cells were scanned on the x-, y-, and z-axes using a confocal microscope TCS SP8 (Leica Microsystems, GmbH Mannheim, DE) with 40x/1.1 objective lens and laser excitation at 405 and 488 nm with additional brightfield channel using the LAS X software (Leica Microsystems, GmbH Mannheim, DE). The images were deconvolved in Huygens Essential version 22.04 (Scientific Volume Imaging, Netherlands).
(§4) Following the same rationale, after treatment, cells were incubated with Alexa Fluor 555 TrF (100 μg/ml), Alexa Fluor 555 CTxB (50 μg/ml) or Alexa Fluor 555 dextran (1 mg/ml) in the binding medium at 37 °C for 20 min. Also, to evaluate cargo-delivery ability of C-ter, tumor cells were incubated with p15 (100 μM) or this molecule conjugate to C-ter (100 μM) for 4 h. […] Finally, evaluation of C-ter derived fragments (all at 10 μM) were investigated after 4 h of treatment.
(§5) In all 96 wells plate assays, nuclei were stained with Hoechst 33342 and fluorescence was monitored by a Molecular Devices ImageXpress Micro Confocal plate-scanning microscope (Molecular Devices, Sunnyvale, CA). Vesicles count were analyzed using MetaXpress software (Molecular Devices, CA) with Transfluor Application Module.

MIA PaCa-2 [4] = conditions: MIA PaCa-2, Alexa-Fluor 488-labeled molecule 20 µM, 37°C, ImageXpress Micro Confocal, Transfluor module, mean ± SD of three independent experiments
Experimental: as §3, §4, §5

SK-MEL-28 [5] = conditions: for Uptake of fluorescent (FITC) peptide by cells: SK-MEL-28, 5 or 10 µM, 6 h, ImageXpress Micro Confocal / confocal TCS SP8
Experimental: An additional step was carried out for the purification of peptides using FPLC. SK-MEL-28 and MIA PaCa-2 (10^5 cells/well) were seeded on sterile 35 mm culture dishes. […] […] The images were deconvolved in Huygens Essential version 22.04 (Scientific Volume Imaging, Netherlands).
Following the same rationale, after treatment, cells were incubated with Alexa Fluor 555 TrF (100 μg/ml), Alexa Fluor 555 CTxB (50 μg/ml) or Alexa Fluor 555 dextran (1 mg/ml) in the binding medium at 37 °C for 20 min. Also, to evaluate cargo-delivery ability of C-ter, tumor cells were incubated with p15 (100 μM) or this molecule conjugate to C-ter (100 μM) for 4 h. […]
as §5

dynein chains = assay: Gene expression of dynein chains by real-time PCR; type: cell-based, human
Experimental: Gene expression was evaluated via quantitative real-time polymerase chain reaction (qPCR) according to standard protocols previously reported by our group ([Pacheco et al., 2014]; [Morais et al., 2016]). Briefly, after cell treatment, the total RNA was extracted using the RNeasy kit (Qiagen, Netherlands) followed by DNase treatment, Then, cDNA strands were constructed using a SuperScript® III First-Strand Synthesis kit (InvitrogenTM, Life Technologies Inc., United States), according to manufacturer’s instructions. Finally, the samples were applied in a SYBR® green (Applied Biosystems, United States)-based reaction with specific and validated primers to evaluate mRNA levels of genes coding for dynein chains. RNA levels were normalized to glyceraldehyde 3-phosphate dehydrogenase (GAPDH) and quantified using the Livak 2^−ΔΔCT method ([Livak and Schmittgen, 2001]). The experiments were conducted by Step One Plus® PCR real-time system (Applied Biosystems, United States).

SK-MEL-28 [6] = assay: Cellular uptake by confocal laser scanning microscopy; conditions: SK-MEL-28, Alexa Fluor 488-labeled molecule 20 µM, 4 h, 37°C
Experimental: as §3

FXa = biological target: T1, FXa (Homo sapiens, UniProt P00742); assay: FXa activity assay, chromogenic substrate S-2765; type: biochemical; conditions: FXa 40 nM, 30 min 37 °C, 20 mM Tris–HCl, PS/PC 2 µM, 5 mM CaCl2, pH 8.0, S-2765 200 µM, 405 nm
T1 construct: the active factor X (FXa)
T1 sequence (P00742 235-488 limits assumed): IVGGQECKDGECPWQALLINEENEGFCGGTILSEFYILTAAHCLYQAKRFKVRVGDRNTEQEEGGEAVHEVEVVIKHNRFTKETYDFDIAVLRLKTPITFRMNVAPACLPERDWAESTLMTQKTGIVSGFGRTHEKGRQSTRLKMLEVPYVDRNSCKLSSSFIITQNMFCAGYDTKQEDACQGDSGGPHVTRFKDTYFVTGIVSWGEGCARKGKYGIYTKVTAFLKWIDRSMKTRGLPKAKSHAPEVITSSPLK
T1 sequence (P00742 41-179 partner limits assumed): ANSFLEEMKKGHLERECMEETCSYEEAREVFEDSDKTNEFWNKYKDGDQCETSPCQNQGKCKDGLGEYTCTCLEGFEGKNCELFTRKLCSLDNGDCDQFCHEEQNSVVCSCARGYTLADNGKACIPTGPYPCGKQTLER
Experimental: Supplementary material 1 - FXa activity assays - FXa (40 nM) was incubated with varying concentrations of the Amblyomin-X recombinant protein and the synthetic domains for 30 min at 37 °C in 20 mM Tris–HCl containing PS/PC (2 µM) and 5 mM CaCl2, pH 8.0. Cleavage of the chromogenic substrate S-2765 (200µM, Chromogenix, UK) was monitored at 405 nm (SpectraMax 190, Molecular Devices, USA). The percentage of inhibition was determined from the residual activity of the enzymes as previously reported15, 16.

SK-MEL-28 [7] = assay: Microinjection assay, cell death by PI staining; type: cell-based, human; conditions: SK-MEL-28, microinjection of 488-labeled molecule, both 20 µM, 4 h; about 50 cells per condition
Experimental: SK-MEL-28 cells were plated on glass Cellocate coverslips for 24 h before injection. […] Staurosporine (10 µM) was added directly to the medium for 6 h and was used as a control for PI staining. Ctrl cells were maintained in a culture medium. The solution was injected into the cytoplasm an average of 50 cells for each condition (compensation pressure: 30 hPa; injection pressure: 100 hPa; injection time: 0.3 s). Immediately after injection, cells were replaced with fresh medium in the incubator at 37 °C. After 4 h, cells were stained with PI (1 μg/ml – contain RNAse A 100 ng/ml) for 15 min at r.t.. Then, cells were washed twice with 1X PBS and fixed with 4% paraformaldehyde for 15 min at r.t... Finally, cells were washed with 1X PBS and one drop of solution anti-fade mounting Vectashield® (Vecta Labs) was applied on the slide with the coverslip containing the cells facing down and, then, sealed. The analysis was performed in Leica SP8 confocal microscope (Leica, Germany): Green fluorescence was used to identify microinjected cells and red fluorescence to score cell death.

[8] = MIA PaCa-2, synthetic domains 0.2–100 μM
[9] = tumor cells, other fragments and TAT-Kunitz data not shown
[10] = SK-MEL-28, synthetic domains 0.2–100 μM

GRKKRRQRRRPPQANSKAVCNLPKLAGDETCSNKTEIRWYYNGTACEAFIFKGCGGNDNNFDRVDDCQRLC-NH2 (also: bicyclic or more (positions not given here)) [TAT-Kunitz]
Cytotoxicity (MTT) (SK-MEL-28 [1]; TAT-Kunitz at 20 and 50 μM, cell line not stated at the place (Figure 7B)): significant cytotoxicity activity

C^#WMSPRHLGT C^#EEQTHFHFESPKLISFKVQDYWILNDIMKKNLTGISLKSEEEDADSGEID (disulfide) [p15-C-ter]
Effect on cell viability (MTT) (MIA PaCa-2 [2]; MIA PaCa-2, 100 μM): decreased cell viability | Internalization relative to the non-conjugated molecule (p15) (SK-MEL-28 [3]): eight-fold more internalized | Effect on cell viability (MTT) (SK-MEL-28 [1]; SK-MEL-28, 100 μM): decreased cell viability

EEQTHFHFESPKLIFKVQDYWILNDIMKKNLTGISLKSEEEDADSGEID [C-ter]
Effect on cell viability (MTT) (MIA PaCa-2 [2]; [8]): no alteration | Vesicles counts (MIA PaCa-2 [4]; 0.25 h): 4.36 ± 2.03 | Vesicles counts (MIA PaCa-2 [4]; 0.5 h): 17.50 ± 24.63 | Vesicles counts (MIA PaCa-2 [4]; 1 h): 10.59 ± 7.15 | Vesicles counts (MIA PaCa-2 [4]; 2 h): 171.11 ± 248.57 | Vesicles counts (MIA PaCa-2 [4]; 4 h): 802.63 ± 353.12 | Vesicles counts (SK-MEL-28 [3]; 0.25 h, MetaXpress Transfluor module): 30.84 ± 17.2 | Vesicles counts (SK-MEL-28 [3]; 0.5 h, Transfluor module): 35.56 ± 21.09 | Vesicles counts (SK-MEL-28 [3]; 1 h, Transfluor module): 62.17 ± 11.20 | Vesicles counts (SK-MEL-28 [3]; 2 h, Transfluor module): 558.48 ± 189.00 | Vesicles counts (SK-MEL-28 [3]; 4 h, Transfluor module): 1210.74 ± 379.14 | Uptake of fluorescent (FITC) peptide by cells (SK-MEL-28 [5]): uptaken | Cells counts per well (SK-MEL-28 [5]; SK-MEL-28, fluorescent peptides 10 µM, all treatments investigated): No alterations in cells counts | Gene expression of dynein chains (dynein chains; [9]): modulated gene expression of dynein chains | Uptake by cells (green fluorescence, confocal) (SK-MEL-28 [6]): uptaken | Effect on cell viability (MTT) (SK-MEL-28 [1]; [10]): no alteration

ANSKAVCNLPKAGDETCSNKTEIRWYYNGTACEAFIFKGCGGNDNNFDRVDDCQRLC-NH2 (also: bicyclic or more (positions not given here)) [Kunitz]
Effect on cell viability (MTT) (MIA PaCa-2 [2]; [8]): no alteration | Number of vesicles relative to complete Amblyomin-X (SK-MEL-28 [3]): ten-fold less | Inhibitory activity against FXa (FXa): lower inhibitory activity against FXa than TFPI-K2 | Uptake by cells (green fluorescence, confocal) (SK-MEL-28 [6]): not detected inside the cells | Effect on cell viability (MTT) (SK-MEL-28 [1]; [10]): no alteration | Propidium iodide (PI) staining after microinjection (SK-MEL-28 [7]): 26%

FKVQDYWILNDIMKKNLTGI* [F2C, C-ter derived fragment 16-35, minimum length C-terminal domain able to enter SK-MEL-28 cells]
Relative fluorescence units (RFU) compared with other peptides (SK-MEL-28 [5]; SK-MEL-28, 10 µM, even in short times of treatment): higher values of relative fluorescence units (RFU) | Uptake of fluorescent (FITC) peptide by cells (SK-MEL-28 [5]): detected in the cell | Gene expression of dynein chains (dynein chains; SK-MEL-28, 5 µM, 24 h, real-time PCR, normalized to GAPDH): modulate gene expression of all dynein chains evaluated | Gene expression of dynein chains (dynein chains; [9]): modulated gene expression of dynein chains

— paper PMC9948614, “Structural and functional properties of the Kunitz-type and C-terminal domains of Amblyomin-X supporting its antitumor activity” (Frontiers in Molecular Biosciences, 2023)
